This passage reports cytotoxicity results from ChEMBL document CHEMBL3507680, “University of Dundee, Gates Library screen for HepG2 cell viability”.

The data set can be described thus: Human HepG2 cell viability assay in 384 well format. In kind it is toxicity, cell-based. Set-up: dose 125 nL, time 70.5 hour; concentration not given beside the values. Conditions: HepG2 cells, read-out: Inhibition.
Turning to `CCN(CC)CC1CN(Cc2ccco2)Cc2nccn2C1` (centres undefined), the cytotoxicity at 70.5 h is -4.92%.
With `Cn1ccc(C(=O)NC2CCC23CCN(Cc2nccs2)CC3)c1` (centres undefined), the cytotoxicity at 70.5 h was -4.21%.
For `COCCn1c2c(ccc1=O)CCN(Cc1ccoc1)CC2`, the cytotoxicity at 70.5 h is -3.82%.
As to `Cc1cccc(CN2CCc3ncnc(Oc4cccnc4)c3CC2)n1`, the cytotoxicity at 70.5 h was 27.9%.
As for `COc1nn(C)c2c1CCCN(C(=O)c1ccccc1F)C2`, the cytotoxicity at 70.5 h is -95.9%.
With `COCCO[C@H]1CCN(C(=O)c2ccco2)[C@H]1Cc1cnn(C)c1`, the cytotoxicity at 70.5 h was -90.2%.
Next, `OCc1nnn2c1CN(Cc1cccnc1)CCC2`: -115%; `CCc1ccc(NC(=O)N2C[C@H]3CC[C@@]4(N=C(C)N(C)C4=O)[C@H]3C2)cc1`: 44.3%; `CS(=O)(=O)N1C[C@@H]2COC[C@H](C(=O)Nc3cnccn3)[C@@H]2C1`: 59.3%.
Next, `C[C@H]1C[C@@H]2CCN(C(=O)c3cnccn3)C[C@H]2O1`: -8.48%.
Take `C[C@H]1C[C@@H]2CCN(C(=O)c3ccccn3)C[C@H]2O1`: the cytotoxicity at 70.5 h is -2.22%.
As to `C[C@@H]1C[C@H]2CN(C(=O)c3ccncn3)C[C@H]2O1`, the cytotoxicity at 70.5 h was -14.1%.
Next, `CC(C)C(=O)N1CCN(C(=O)N(C)C)CC2(CC(=O)N(C)C2)C1` (centres undefined): 37.2%; `Cc1ccc(CNC(=O)c2nn(C)c3c2CS(=O)(=O)CC3)o1`: -2.5%.
Take `Cn1nc(C(=O)NCc2cccs2)c2c1CCS(=O)(=O)C2`: the cytotoxicity at 70.5 h is -6.12%.
As for `COc1ccccc1C(=O)Nc1c(F)c(C(=O)N2CCCC2)nn1C`, the cytotoxicity at 70.5 h was -0.747%.
Regarding `Cn1nc(C(=O)N2CCCC2)c(F)c1NC(=O)Cc1ccccc1`, the cytotoxicity at 70.5 h was 28.2%.
On to `CC(C)CNC(=O)c1nn(C)c(NC(=O)Cc2ccccc2)c1F`, for which the cytotoxicity at 70.5 h was -9.39%.
As to `O=C(CSc1ccccn1)NCc1ccc2c(c1)CCC(=O)N2`, the cytotoxicity at 70.5 h worked out at 40.7%.
Regarding `CCOCCNS(=O)(=O)c1cc(C)c2nc(O)cc(C)c2c1`, the cytotoxicity at 70.5 h worked out at 21%.
Take `Cc1nnc(SCC(=O)NCc2ccc3c(c2)CCC(=O)N3)n1C`: the cytotoxicity at 70.5 h was -3%.
Take `COc1cccc(OCCNS(=O)(=O)Cc2ccccc2)c1`: the cytotoxicity at 70.5 h stood at 19.4%.
As to `Cc1cccc(N(C)Cc2cc(=O)n3oc(C)cc3n2)c1`, the cytotoxicity at 70.5 h came out at 3.47%.
For `Cc1cc2nc(CN(C)c3ccc(Cl)cc3)cc(=O)n2o1`, the cytotoxicity at 70.5 h worked out at 22%.
In the case of `O=C1CNc2ncnc(N3CCN(Cc4ccccc4F)CC3)c2N1` it was -7.69%.
As to `Cc1nn(CCNc2ncnc3c2NC(=O)CN3)c(C)c1Cl`, the cytotoxicity at 70.5 h was -8.12%.
As to `Cc1cc(C)n(CCNc2ncnc3c2NC(=O)CN3)n1`, the cytotoxicity at 70.5 h is -15.7%.
Next, `O=C1CNc2ncnc(Nc3cnn(Cc4ccccc4F)c3)c2N1`: 27.9%.
On to `COc1ccc(C(C)Nc2ncnc3c2NC(=O)CN3)cc1` (centres undefined), for which the cytotoxicity at 70.5 h was -14.1%.
Consider `COc1cccc(C(C)Nc2ncnc3c2NC(=O)CN3)c1` (centres undefined), for which the cytotoxicity at 70.5 h was determined as 11%.
In the case of `Cc1ccccc1CN1CCN(c2ncnc3c2NC(=O)CN3)CC1`, the cytotoxicity at 70.5 h was -8.36%.
Next, `O=C1CNc2ncnc(NCc3cccs3)c2N1`: -5.96%.
In the case of `O=C1CNc2ncnc(N3CCN(Cc4ccccc4)CC3)c2N1`, the cytotoxicity at 70.5 h amounted to 12.6%.
As to `COc1ccc(CNc2ncnc3c2NC(=O)CN3)cc1`, the cytotoxicity at 70.5 h was -6.06%.
In the case of `CCCc1noc(C2CCN(S(=O)(=O)c3cccs3)CC2)n1`, the cytotoxicity at 70.5 h was -2.96%.
Turning to `CC(C)c1noc(C2CCN(C(=O)c3cccs3)CC2)n1`, the cytotoxicity at 70.5 h was -5.14%.
Turning to `CCS(=O)(=O)N1CCCCC1c1nc(C)no1` (centres undefined), the cytotoxicity at 70.5 h was -5.51%.
On to `Cc1cc(CN2CCC3(CC2)CC(Nc2ncccn2)CO3)nn1C` (centres undefined), for which the cytotoxicity at 70.5 h was -35.4%.
`CC(C)CS(=O)(=O)N1CCC2(CN(c3ccsc3)C(=O)CN2C)C1` (centres undefined): the cytotoxicity at 70.5 h is -111%.
In the case of `CO[C@@H]1CC[C@H]2[C@H]1OCCN2CC1CC1` it was -83.7%.
Take `Cc1nc(-c2cc(C(=O)NCCN3CCOCC3)c3ccccn23)cs1`: the cytotoxicity at 70.5 h was -131%.
For `Cc1nc(CN2CCOCC3(CCN(c4cnccn4)CC3)C2)cs1`, the cytotoxicity at 70.5 h is -82.2%.
In the case of `c1ccc(CN2CCCn3nnc(CNc4ncccn4)c3C2)nc1` it was -87.8%.
With `COCCO[C@H]1CCN(C(=O)c2cccnc2)[C@H]1Cc1cnn(C)c1`, the cytotoxicity at 70.5 h was -96.2%.
Next, `CN1CC(=O)N(c2ccsc2)CC12CCN(S(=O)(=O)C1CC1)C2` (centres undefined): -96.5%; `c1cnc(NCc2nnn3c2CN(Cc2cccs2)CCC3)nc1`: -115%; `CC(C)(CO)CNC(=O)c1cc(-c2cc[nH]n2)n2ccccc12`: -97.3%.
Turning to `C1CC(CO[C@@H]2CC[C@H]3[C@H]2OCCN3CC2CC2)CCO1`, the cytotoxicity at 70.5 h was -82.4%.
In the case of `C1CCC(CO[C@@H]2CC[C@H]3[C@H]2OCCN3CC2CCOCC2)C1` it was -84.4%.
As to `CCO[C@@H]1CC[C@H]2[C@H]1OCCN2CC1CCC1`, the cytotoxicity at 70.5 h was -104%.
In the case of `COc1nn(C)c2c1CCCN(C(=O)c1ccc3ccccc3n1)C2`, the cytotoxicity at 70.5 h came to 8.68%.
As to `O=C(c1cnccn1)N1C[C@@H](OCc2ccncc2)[C@@H]2OCCC[C@@H]21`, the cytotoxicity at 70.5 h was -8.9%.
With `O=C1COC2(CCN(Cc3ccco3)CC2)CN1`, the cytotoxicity at 70.5 h was -7.36%.
Next, `CCOCC1CN(Cc2ccc(OC)cc2)Cc2nn(CC3CC3)cc21` (centres undefined): -5.83%; `O=C(C1CCC1)N1C[C@@H]2CCN(c3cccnc3)C[C@@H]2C1`: 30%; `Cn1ccnc1CN1C[C@@H]2[C@@H](C1)OCC(=O)N2CC1CCCC1`: -21.4%.
On to `c1csc(NCc2n[nH]c3c2CCN(CC2CC2)C3)n1`, for which the cytotoxicity at 70.5 h was -14.2%.
For the compound `O=C(CC1CCCC1)N1C[C@H](OCc2ccncc2)[C@H]2OCCC[C@H]21`, the cytotoxicity at 70.5 h is -27.1%.
With `CN(C)C(=O)CC1CC2(CCN(Cc3ccco3)CC2)c2ccccc21` (centres undefined), the cytotoxicity at 70.5 h is -27.6%.
For the compound `O=C1COC2(CCN(CC3CC3)CC2)CN1c1cncnc1`, the cytotoxicity at 70.5 h was -13.3%.
On to `CNC(=O)CN1CCc2c(CNc3nccs3)n[nH]c2C1`, for which the cytotoxicity at 70.5 h was -10.9%.
`O=C1CO[C@@H]2CN(CC3CCOCC3)C[C@H]2N1Cc1ccncc1`: the cytotoxicity at 70.5 h was -2.17%.
Consider `O=C(Nc1cccnc1)[C@@H]1COC[C@H]2CN(C3CCCC3)C[C@H]21`, for which the cytotoxicity at 70.5 h is -124%.
Consider `c1cncc(OC[C@@]23CCO[C@@H]2CCN(Cc2cccs2)C3)c1`, for which the cytotoxicity at 70.5 h is -100%.
Regarding `Cn1cc(C(=O)NCc2cn3c(n2)CN(CC2CCOC2)CC3)cn1` (centres undefined), the cytotoxicity at 70.5 h is -110%.
`CNC(=O)CN1CCCC12CCN(Cc1c[nH]cn1)CC2`: the cytotoxicity at 70.5 h is -24.2%.
Consider `CCOCC1CN(Cc2ccccn2)Cc2nn(CC3CC3)cc21` (centres undefined), for which the cytotoxicity at 70.5 h is -4.99%.
Consider `COCC1c2c(cnn2C)CCN1Cc1ccc(C)cc1` (centres undefined), for which the cytotoxicity at 70.5 h came to 42.3%.
Regarding `COCC1c2c(cnn2C)CCN1Cc1cccc(C)c1` (centres undefined), the cytotoxicity at 70.5 h was -1.18%.
